“And” between values parts separate entries of the source, which are not always exact repeats. Equal values may be shown once.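 How tested: cells in 96-well plates exposed to compound for 48 hours at five concentrations. Here, GI50 denotes the concentration required for 50% inhibition of growth. At the TGI there is no net growth.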
Key:
Experiment in all cases: inhibition of tumour cell growth, NCI panel, 48 h
HCT-116 colon = system: HCT-116 colon
HT29 colon = system: HT29 colon
NCI-H226 lung = system: NCI-H226 lung
OVCAR-8 ovarian = system: OVCAR-8 ovarian
SK-OV-3 ovarian = system: SK-OV-3 ovarian
SN12C renal = system: SN12C renal
SNB-75 CNS = system: SNB-75 CNS
SW-620 colon = system: SW-620 colon
TK-10 renal = system: TK-10 renal
U251 CNS = system: U251 CNS

c1cc2c(cn1)Nc1ccncc1S2
GI50 (HCT-116 colon): 17.9 µM
TGI (HCT-116 colon): 69.5 µM
GI50 (HT29 colon): 58 µM
TGI (HT29 colon): > 100 µM
GI50 (NCI-H226 lung): 49.2 µM
TGI (NCI-H226 lung): > 100 µM
GI50 (OVCAR-8 ovarian): 35.7 µM
TGI (OVCAR-8 ovarian): > 100 µM
GI50 (SK-OV-3 ovarian): 15.2 µM
TGI (SK-OV-3 ovarian): 80.6 µM
GI50 (SN12C renal): 69.4 µM
TGI (SN12C renal): > 100 µM
GI50 (SNB-75 CNS): 43.9 µM
TGI (SNB-75 CNS): > 100 µM
GI50 (SW-620 colon): 35.4 µM
TGI (SW-620 colon): > 100 µM
GI50 (TK-10 renal): 42.7 µM
TGI (TK-10 renal): > 100 µM
GI50 (U251 CNS): 44.6 µM
TGI (U251 CNS): > 100 µM

CC(=O)c1c(C)[nH]c(-c2nc3ccc(N4CCN(C)CC4)cc3[nH]2)c1-c1ccccc1
GI50 (HCT-116 colon): 1.54 µM
TGI (HCT-116 colon): 17.2 µM
GI50 (HT29 colon): 0.437 µM
TGI (HT29 colon): 18.5 µM
GI50 (NCI-H226 lung): 1.93 µM
TGI (NCI-H226 lung): 49.5 µM
GI50 (OVCAR-8 ovarian): 3.08 µM
TGI (OVCAR-8 ovarian): > 100 µM
GI50 (SK-OV-3 ovarian): 0.97 µM
TGI (SK-OV-3 ovarian): > 100 µM
GI50 (SN12C renal): 2.34 µM
TGI (SN12C renal): 23.2 µM
GI50 (SNB-75 CNS): 0.0416 µM
TGI (SNB-75 CNS): 0.937 µM
GI50 (SW-620 colon): 3.82 µM
TGI (SW-620 colon): 24.8 µM
GI50 (TK-10 renal): 0.604 µM
TGI (TK-10 renal): 27.2 µM
GI50 (U251 CNS): 3.53 µM
TGI (U251 CNS): 72.6 µM

O=C1NC(=NCCCc2ccccc2)S/C1=C\c1ccc2ncccc2c1
GI50 (HCT-116 colon): 3.6 µM
TGI (HCT-116 colon): 14.1 µM
GI50 (HT29 colon): 6.55 µM
TGI (HT29 colon): > 21.4 µM
GI50 (NCI-H226 lung): 4.2 µM
TGI (NCI-H226 lung): 10.7 µM
GI50 (OVCAR-8 ovarian): 5.94 µM
TGI (OVCAR-8 ovarian): 16.8 µM
GI50 (SK-OV-3 ovarian): 5.33 µM
TGI (SK-OV-3 ovarian): 12.2 µM
GI50 (SN12C renal): 6.13 µM
TGI (SN12C renal): 20.9 µM
GI50 (SNB-75 CNS): 2.3 µM
TGI (SNB-75 CNS): 6.69 µM
GI50 (SW-620 colon): 6.37 µM
TGI (SW-620 colon): > 21.5 µM
GI50 (TK-10 renal): 4.15 µM
TGI (TK-10 renal): 10.5 µM
GI50 (U251 CNS): 2.9 µM
TGI (U251 CNS): 10.3 µM

CN(CCCNC(=O)CCOCCOCCOCCNC(=O)Cc1ccc2ccc3cccc4ccc1c2c34)CCCNc1cc(-c2ccc3ccccc3c2)nc2ccccc12
GI50 (HCT-116 colon): 0.13 µM
TGI (HCT-116 colon): 32.5 µM
GI50 (HT29 colon): 0.108 µM
TGI (HT29 colon): 0.419 µM
GI50 (NCI-H226 lung): 3.94 µM
TGI (NCI-H226 lung): 13.3 µM
GI50 (OVCAR-8 ovarian): 0.341 µM
TGI (OVCAR-8 ovarian): 0.735 µM
GI50 (SK-OV-3 ovarian): 0.634 µM
TGI (SK-OV-3 ovarian): 1.2 µM
GI50 (SN12C renal): 3.59 µM
TGI (SN12C renal): 8.44 µM
GI50 (SNB-75 CNS): 0.51 µM
TGI (SNB-75 CNS): 0.994 µM
GI50 (SW-620 colon): 0.247 µM
TGI (SW-620 colon): 0.654 µM
GI50 (TK-10 renal): 3.29 µM
TGI (TK-10 renal): 14.7 µM
GI50 (U251 CNS): 0.472 µM
TGI (U251 CNS): 0.938 µM

CCCCCCCCCCCC[n+]1ccc2ccccc2c1
GI50 (HCT-116 colon): 0.857 µM
TGI (HCT-116 colon): 2.37 µM
GI50 (HT29 colon): 0.419 µM
TGI (HT29 colon): 2.14 µM
GI50 (NCI-H226 lung): 1.1 µM
TGI (NCI-H226 lung): 3.85 µM
GI50 (OVCAR-8 ovarian): 0.654 µM
TGI (OVCAR-8 ovarian): 2.34 µM
GI50 (SK-OV-3 ovarian): 1.43 µM
TGI (SK-OV-3 ovarian): 3.1 µM
GI50 (SN12C renal): 1.17 µM
TGI (SN12C renal): 2.65 µM
GI50 (SNB-75 CNS): 1.14 µM
TGI (SNB-75 CNS): 2.78 µM
GI50 (SW-620 colon): 0.996 µM
TGI (SW-620 colon): 2.56 µM
GI50 (TK-10 renal): 1.17 µM
TGI (TK-10 renal): 2.57 µM
GI50 (U251 CNS): 0.348 µM
TGI (U251 CNS): 1.42 µM

CO[C@H]1C[C@@H]2CC[C@@H](C)[C@@](O)(O2)C(=O)C(=O)N2CCCC[C@H]2C(=O)O[C@H]([C@H](C)C[C@@H]2CC[C@@H](OCCO)[C@H](OC)C2)CC(=O)[C@H](C)C=C(C)[C@@H](O)[C@@H](OC)C(=O)[C@H](C)C[C@H](C)/C=C/C=C/C=C1C
GI50 (HCT-116 colon): 3.43 µM
TGI (HCT-116 colon): 18.9 µM
GI50 (HT29 colon): 2.55 µM
TGI (HT29 colon): 21.1 µM
TGI (NCI-H226 lung): 23.5 µM
TGI (OVCAR-8 ovarian): 29.5 µM
GI50 (SK-OV-3 ovarian): < 0.01 µM
TGI (SK-OV-3 ovarian): 20.5 µM
GI50 (SN12C renal): 1.82 µM
TGI (SN12C renal): 31.1 µM
GI50 (SNB-75 CNS): < 0.01 µM
TGI (SNB-75 CNS): 14.1 µM
GI50 (SW-620 colon): 8.49 µM
TGI (SW-620 colon): 23.9 µM
GI50 (TK-10 renal): < 0.01 µM
TGI (TK-10 renal): 19.1 µM
GI50 (U251 CNS): < 0.0108 µM
TGI (U251 CNS): 18.1 µM

O=C1Cc2cc(C(=O)NC3C[C@H]4CC[C@@H](C3)N4S(=O)(=O)CC3CCN(CCCC(F)(F)F)CC3)c(Cl)cc2N1 (stereo partly drawn)
GI50 (HCT-116 colon): > 100 µM
TGI (HCT-116 colon): > 100 µM
GI50 (HT29 colon): > 100 µM
TGI (HT29 colon): > 100 µM
GI50 (NCI-H226 lung): > 100 µM
TGI (NCI-H226 lung): > 100 µM
GI50 (OVCAR-8 ovarian): > 100 µM
TGI (OVCAR-8 ovarian): > 100 µM
GI50 (SK-OV-3 ovarian): > 100 µM
TGI (SK-OV-3 ovarian): > 100 µM
GI50 (SN12C renal): > 100 µM
TGI (SN12C renal): > 100 µM
GI50 (SNB-75 CNS): > 100 µM
TGI (SNB-75 CNS): > 100 µM
GI50 (SW-620 colon): > 100 µM
TGI (SW-620 colon): > 100 µM
GI50 (TK-10 renal): > 100 µM
TGI (TK-10 renal): > 100 µM
GI50 (U251 CNS): > 100 µM
TGI (U251 CNS): > 100 µM

Nc1ncnc2c1ncn2C1OC(CO)C(O)C1N (stereo not drawn)
TGI (HCT-116 colon): > 100 µM
TGI (HT29 colon): > 100 µM
TGI (NCI-H226 lung): > 100 µM
TGI (OVCAR-8 ovarian): > 100 µM
TGI (SK-OV-3 ovarian): > 100 µM
TGI (SN12C renal): > 100 µM
TGI (SNB-75 CNS): > 100 µM
TGI (SW-620 colon): > 100 µM
TGI (TK-10 renal): > 100 µM
TGI (U251 CNS): > 100 µM

Cc1cc([N+](=O)[O-])c2ccccc2[n+]1[O-]
GI50 (HCT-116 colon): 0.0472 µM and 0.0407 µM
TGI (HCT-116 colon): 0.336 µM and 0.364 µM
GI50 (HT29 colon): 0.066 µM and 0.0948 µM
TGI (HT29 colon): 0.328 µM and 0.393 µM
GI50 (NCI-H226 lung): 0.571 µM and 0.927 µM
TGI (NCI-H226 lung): 3.27 µM and 4.62 µM
GI50 (OVCAR-8 ovarian): 0.683 µM and 0.688 µM
TGI (OVCAR-8 ovarian): 3.88 µM and 4.86 µM
GI50 (SK-OV-3 ovarian): 1.94 µM and 3.33 µM
TGI (SK-OV-3 ovarian): 6.07 µM and 11.6 µM
GI50 (SN12C renal): 0.278 µM and 0.27 µM
TGI (SN12C renal): 1.8 µM and 3.09 µM
GI50 (SNB-75 CNS): 0.421 µM and 0.165 µM
TGI (SNB-75 CNS): 2.09 µM and 0.722 µM
GI50 (SW-620 colon): 0.0728 µM and 0.0543 µM
TGI (SW-620 colon): 0.766 µM and 0.523 µM
GI50 (TK-10 renal): 0.187 µM and 0.21 µM
TGI (TK-10 renal): 0.541 µM and 0.623 µM
GI50 (U251 CNS): 0.402 µM and 0.347 µM
TGI (U251 CNS): 2.93 µM and 2.84 µM

CCc1nc(N)nc(N)c1-c1ccc(N2CCNCC2)cc1
TGI (HCT-116 colon): > 100 µM
TGI (HT29 colon): > 100 µM
TGI (NCI-H226 lung): > 100 µM
TGI (OVCAR-8 ovarian): > 100 µM
TGI (SK-OV-3 ovarian): > 100 µM
TGI (SN12C renal): > 100 µM
TGI (SNB-75 CNS): > 100 µM
TGI (SW-620 colon): > 100 µM
TGI (TK-10 renal): > 100 µM
TGI (U251 CNS): > 100 µM
